In PubChem BioAssay AID256 (DTP/NCI, 2004):
Toxic doses and inconclusive results are not listed.

Tested on: CD2F1 mice, L1210 leukemia ip, survival T/C
Test: NCI In Vivo Anticancer Drug Screen. Data for tumor model L1210 Leukemia (intraperitoneal) in CD2F1 (CDF1) mice
Settings: higher = longer survival
Outline: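 Mice carrying a transplanted tumor received test compound or vehicle alone. The value is the measurement in the treated group divided by that in the vehicle-treated control group.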

[1] = endpoint: mean survival time, dose: 100.0 mg/kg/injection, schedule: Q04DX003 (ip), vehicle: saline with Tween-80
[2] = endpoint: mean survival time, dose: 200.0 mg/kg/injection, schedule: Q04DX003 (ip), vehicle: saline with Tween-80
[3] = endpoint: mean survival time, dose: 400.0 mg/kg/injection, schedule: Q04DX003 (ip), vehicle: saline with Tween-80
[4] = endpoint: mean survival time, dose: 100.0 mg/kg/injection, schedule: Q04DX003 (ip), vehicle: saline
[5] = endpoint: mean survival time, dose: 200.0 mg/kg/injection, schedule: Q04DX003 (ip), vehicle: saline
[6] = endpoint: mean survival time, dose: 100.0 mg/kg/injection, schedule: Q04DX002 (ip), vehicle: saline with Tween-80
[7] = endpoint: mean survival time, dose: 200.0 mg/kg/injection, schedule: Q04DX002 (ip), vehicle: saline with Tween-80
[8] = endpoint: mean survival time, dose: 400.0 mg/kg/injection, schedule: Q04DX002 (ip), vehicle: saline with Tween-80
[9] = endpoint: mean survival time, dose: 12.5 mg/kg/injection, schedule: Q01DX009 (ip), vehicle: saline
[10] = endpoint: mean survival time, dose: 50.0 mg/kg/injection, schedule: Q01DX009 (ip), vehicle: saline

Compound: C1=CC2C3c4ccccc4C(C2C1)[n+]1ccccc13 (stereo not given)
- T/C (endpoint: mean survival time, dose: 12.5 mg/kg/injection, schedule: Q04DX003 (ip), vehicle: Klucel (hydroxypropylcellulose) (HPC)): 95 % of control
- T/C (endpoint: mean survival time, dose: 25.0 mg/kg/injection, schedule: Q04DX003 (ip), vehicle: Klucel (hydroxypropylcellulose) (HPC)): 97 % of control
- T/C (endpoint: mean survival time, dose: 50.0 mg/kg/injection, schedule: Q04DX003 (ip), vehicle: Klucel (hydroxypropylcellulose) (HPC)): 93 % of control

Compound: CN(N=O)c1ccc(CC2CCc3ccccc32)cc1 (stereo not given)
- T/C (endpoint: mean survival time, dose: 100.0 mg/kg/injection, schedule: Q01DX009 (ip), vehicle: Klucel (hydroxypropylcellulose) (HPC)): 93 % of control
- T/C (endpoint: mean survival time, dose: 200.0 mg/kg/injection, schedule: Q01DX009 (ip), vehicle: Klucel (hydroxypropylcellulose) (HPC)): 98 % of control
- T/C (endpoint: mean survival time, dose: 400.0 mg/kg/injection, schedule: Q01DX009 (ip), vehicle: Klucel (hydroxypropylcellulose) (HPC)): 101 % of control

Compound: CCOC(=O)Oc1c(Cl)c(Cl)c(Cl)c(Cl)c1Cl
- T/C [1]: 96 % of control
- T/C [2]: 96 % of control
- T/C [3]: 95 % of control

Compound: C[Si](C)(C)OC1CC(=O)OC1n1cc(F)c(=O)[nH]c1=O (stereo not given)
- T/C (endpoint: median survival time, dose: 12.5 mg/kg/injection, schedule: Q01DX005 (ip), vehicle: saline): 103 % of control
- T/C (endpoint: median survival time, dose: 25.0 mg/kg/injection, schedule: Q01DX005 (ip), vehicle: saline): 107 % of control
- T/C (endpoint: median survival time, dose: 50.0 mg/kg/injection, schedule: Q01DX005 (ip), vehicle: saline): 113 % of control
- T/C (endpoint: median survival time, dose: 100.0 mg/kg/injection, schedule: Q01DX005 (ip), vehicle: saline): 116 % of control

Compound: O=[N+]([O-])c1ccc(Cl)c(P(=O)(O)c2cc([N+](=O)[O-])ccc2Cl)c1
- T/C (endpoint: mean survival time, dose: 50.0 mg/kg/injection, schedule: Q04DX003 (ip), vehicle: saline): 100 % of control
- T/C [4]: 101 % of control
- T/C [5]: 100 % of control

Compound: c1c2c(cc3c1OCO3)CNCC2
- T/C (endpoint: mean survival time, dose: 100.0 mg/kg/injection, schedule: Q01DX001 (ip), vehicle: saline): 102 % of control

Compound: CC(N)CCC(C)(C)O (stereo not given)
- T/C [4]: 92 % of control
- T/C [5]: 100 % of control

Compound: CN(C)C(=S)Oc1ccc(S(=O)(=O)F)cc1
- T/C [6]: 98 % of control
- T/C [7]: 91 % of control
- T/C [8]: 109 % of control

Compound: Nc1nc(N)c2[nH]c(-c3ccccc3[N+](=O)[O-])nc2n1
- T/C (endpoint: mean survival time, dose: 12.5 mg/kg/injection, schedule: Q01DX005 (ip), vehicle: water): 96 % of control
- T/C (endpoint: mean survival time, dose: 25.0 mg/kg/injection, schedule: Q01DX005 (ip), vehicle: water): 89 % of control
- T/C (endpoint: mean survival time, dose: 50.0 mg/kg/injection, schedule: Q01DX005 (ip), vehicle: water): 87 % of control
- T/C (endpoint: mean survival time, dose: 100.0 mg/kg/injection, schedule: Q01DX005 (ip), vehicle: water): 96 % of control
- T/C (endpoint: mean survival time, dose: 200.0 mg/kg/injection, schedule: Q01DX005 (ip), vehicle: water): 96 % of control

Compound: CCOC(=O)C1=C(C#N)C2(CCC(OCc3ccccc3)CC2)C(=O)O1 (stereo not given)
- T/C [9]: 95 % of control
- T/C (endpoint: mean survival time, dose: 12.5 mg/kg/injection, schedule: Q01DX009 (ip), vehicle: suspension in saline): 106 % of control
- T/C (endpoint: mean survival time, dose: 25.0 mg/kg/injection, schedule: Q01DX009 (ip), vehicle: saline): 100 % of control
- T/C (endpoint: mean survival time, dose: 25.0 mg/kg/injection, schedule: Q01DX009 (ip), vehicle: suspension in saline): 106 % of control
- T/C [10]: 107 % of control
- T/C (endpoint: mean survival time, dose: 50.0 mg/kg/injection, schedule: Q01DX009 (ip), vehicle: suspension in saline): 108 % of control
- T/C (endpoint: mean survival time, dose: 100.0 mg/kg/injection, schedule: Q01DX009 (ip), vehicle: saline): 106 % of control
- T/C (endpoint: mean survival time, dose: 100.0 mg/kg/injection, schedule: Q01DX009 (ip), vehicle: suspension in saline): 106 % of control
- T/C (endpoint: mean survival time, dose: 200.0 mg/kg/injection, schedule: Q01DX009 (ip), vehicle: saline): 106 % of control
- T/C (endpoint: mean survival time, dose: 200.0 mg/kg/injection, schedule: Q01DX009 (ip), vehicle: suspension in saline): 100 % of control
- T/C (endpoint: mean survival time, dose: 400.0 mg/kg/injection, schedule: Q01DX009 (ip), vehicle: suspension in saline): 108 % of control

Compound: COC1OCC(O)C(NC(=O)N(C)N=O)C1O (stereo not given)
- T/C [10]: 160 % of control
- T/C (endpoint: mean survival time, dose: 75.0 mg/kg/injection, schedule: Q01DX009 (ip), vehicle: saline): 186 % of control

Compound: O=S1(=O)OC2(CCCCC2)c2ccccc21
- T/C (endpoint: mean survival time, dose: 100.0 mg/kg/injection, schedule: Q01DX001 (ip), vehicle: saline with Tween-80): 95 % of control
- T/C [6]: 96 % of control
- T/C (endpoint: mean survival time, dose: 200.0 mg/kg/injection, schedule: Q01DX001 (ip), vehicle: saline with Tween-80): 95 % of control
- T/C [7]: 90 % of control
- T/C (endpoint: mean survival time, dose: 400.0 mg/kg/injection, schedule: Q01DX001 (ip), vehicle: saline with Tween-80): 100 % of control
- T/C [8]: 93 % of control

Compound: CCO/C=C1\SC(=S)N(c2ccccc2OC)C1=O
- T/C [1]: 107 % of control
- T/C [2]: 102 % of control
- T/C [3]: 107 % of control

Compound: C=CC[n+]1ccccc1Cc1ccccc1
- T/C (endpoint: mean survival time, dose: 25.0 mg/kg/injection, schedule: Q01DX001 (ip), vehicle: saline): 98 % of control
- T/C (endpoint: mean survival time, dose: 50.0 mg/kg/injection, schedule: Q01DX001 (ip), vehicle: saline): 95 % of control

Compound: S=C(S)NNc1ccccc1
- T/C [2]: 91 % of control

Compound: CCOC(=O)CC(=O)C(F)(F)F.[Cu+2]
- T/C (endpoint: mean survival time, dose: 2.5 mg/kg/injection, schedule: Q01DX009 (ip), vehicle: saline with Tween-80): 98 % of control
- T/C (endpoint: mean survival time, dose: 5.0 mg/kg/injection, schedule: Q01DX009 (ip), vehicle: saline with Tween-80): 98 % of control
- T/C (endpoint: mean survival time, dose: 10.0 mg/kg/injection, schedule: Q01DX009 (ip), vehicle: saline with Tween-80): 95 % of control

Compound: CCOC(=O)c1cc([N+](=O)[O-])cc([N+](=O)[O-])c1Sc1ncnc2nc[nH]c12
- T/C (endpoint: mean survival time, dose: 0.63 mg/kg/injection, schedule: Q01DX005 (ip), vehicle: other): 98 % of control
- T/C (endpoint: mean survival time, dose: 1.25 mg/kg/injection, schedule: Q01DX005 (ip), vehicle: other): 102 % of control
- T/C (endpoint: mean survival time, dose: 2.5 mg/kg/injection, schedule: Q01DX005 (ip), vehicle: other): 110 % of control
- T/C (endpoint: mean survival time, dose: 5.0 mg/kg/injection, schedule: Q01DX005 (ip), vehicle: other): 100 % of control
- T/C (endpoint: mean survival time, dose: 6.25 mg/kg/injection, schedule: Q01DX005 (ip), vehicle: other): 120 % of control
- T/C (endpoint: mean survival time, dose: 10.0 mg/kg/injection, schedule: Q01DX005 (ip), vehicle: other): 107 % of control
- T/C (endpoint: mean survival time, dose: 18.8 mg/kg/injection, schedule: Q01DX005 (ip), vehicle: other): 112 % of control

Compound: CS(=O)(=O)C(Br)S(C)(=O)=O
- T/C (endpoint: mean survival time, dose: 3.13 mg/kg/injection, schedule: Q01DX009 (ip), vehicle: saline): 102 % of control
- T/C (endpoint: mean survival time, dose: 6.25 mg/kg/injection, schedule: Q01DX009 (ip), vehicle: saline): 102 % of control
- T/C (endpoint: mean survival time, dose: 6.25 mg/kg/injection, schedule: Q04DX003 (ip), vehicle: saline): 96 % of control
- T/C [9]: 101 % of control
- T/C (endpoint: mean survival time, dose: 12.5 mg/kg/injection, schedule: Q04DX003 (ip), vehicle: saline): 93 % of control
- T/C (endpoint: mean survival time, dose: 25.0 mg/kg/injection, schedule: Q04DX003 (ip), vehicle: saline): 109 % of control

Compound: O=C(NC1CCC(CC2CCCCC2)CC1)c1ccccc1 (stereo not given)
- T/C (endpoint: mean survival time, dose: 100.0 mg/kg/injection, schedule: Q01DX009 (ip), vehicle: saline with Tween-80): 100 % of control
- T/C (endpoint: mean survival time, dose: 200.0 mg/kg/injection, schedule: Q01DX009 (ip), vehicle: saline with Tween-80): 93 % of control
- T/C (endpoint: mean survival time, dose: 400.0 mg/kg/injection, schedule: Q01DX009 (ip), vehicle: saline with Tween-80): 114 % of control

Compound: O=C1OC(=O)N2N=CC=CC12 (stereo not given)
- T/C (endpoint: mean survival time, dose: 100.0 mg/kg/injection, schedule: Q01DX001 (ip), vehicle: saline sonified): 96 % of control
- T/C (endpoint: mean survival time, dose: 200.0 mg/kg/injection, schedule: Q01DX001 (ip), vehicle: saline sonified): 98 % of control
- T/C (endpoint: mean survival time, dose: 400.0 mg/kg/injection, schedule: Q01DX001 (ip), vehicle: saline sonified): 94 % of control

Compound: CCOC(=O)C(OCc1ccccc1)(C(=O)N1CCCCCC1=O)C(C)C (stereo not given)
- T/C [1]: 100 % of control
- T/C [2]: 105 % of control
- T/C [3]: 96 % of control

Compound: CCOC(=O)/C(Cc1cc(Cl)nnc1Cl)=N\N
- T/C (endpoint: mean survival time, dose: 12.5 mg/kg/injection, schedule: Q04DX002 (ip), vehicle: saline with Tween-80): 113 % of control
- T/C (endpoint: mean survival time, dose: 25.0 mg/kg/injection, schedule: Q04DX002 (ip), vehicle: saline with Tween-80): 98 % of control
- T/C (endpoint: mean survival time, dose: 50.0 mg/kg/injection, schedule: Q04DX002 (ip), vehicle: saline with Tween-80): 87 % of control
